Counter-ions that a name gives are not always drawn.
Legend:
[1] = biological target: T1, mouse EP1 (Mus musculus, UniProt P35375); assay: Receptor antagonism using cells expressing EP1 in the presence of BSA (intracellular calcium); format: cell-based; design: expressed in transfected cells; details: inhibition of PGE2 (100 nM)-induced increase of intracellular calcium; assay buffer with 1% (w/v) BSA
T1 sequence (P35375 1-405): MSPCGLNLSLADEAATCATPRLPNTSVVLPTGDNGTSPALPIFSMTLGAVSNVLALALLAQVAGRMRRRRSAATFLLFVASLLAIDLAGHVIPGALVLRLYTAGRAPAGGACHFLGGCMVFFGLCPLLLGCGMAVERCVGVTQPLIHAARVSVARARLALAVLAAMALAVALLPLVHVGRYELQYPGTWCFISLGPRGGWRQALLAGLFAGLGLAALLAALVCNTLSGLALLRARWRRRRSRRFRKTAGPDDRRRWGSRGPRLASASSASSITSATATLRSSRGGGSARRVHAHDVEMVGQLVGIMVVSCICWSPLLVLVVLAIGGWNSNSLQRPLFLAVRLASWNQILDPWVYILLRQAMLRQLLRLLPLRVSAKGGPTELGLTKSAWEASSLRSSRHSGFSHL
Method: (ii) Experimental Measurement of the Activity of Receptor Antagonism Using Cells Expressing Prostanoid Receptor Subtype EP1 in the Presence of BSA (Bovine Serum Albumin)
The cells expressing mouse EP1 receptor were seeded at 1×10^4 cells/well in 96 well plates and cultured for 2 days with 10% FBS (fetal bovine serum)/minimum essential medium Eagle alpha modification (αMEM) in the incubator (37° C., 5% CO2). The cells in each well were rinsed with phosphate buffer (PBS(−)), and load buffer was added. After incubation for 1 hour, the load buffer was discarded. After the addition of the assay buffer to each well, the cells were incubated in a dark place at room temperature for 1 hour. After the addition of a compound of the present invention (10 μl) and PGE2 (10 μl) which were prepared with assay buffer, intracellular calcium concentration was measured with Fluorescence drug screening system (FDSS-4000, Hamamatsu Photonics). A pair of fluorescence intensities emitted 500 nm by an excitation wavelength of each 340 nm and 380 nm was measured.
The EP1 antagonist activity was estimated as percent inhibition of the increase of intracellular calcium concentration induced by PGE2 (100 nM).
Load buffer: 10% FBS/αMEM containing 5 μM of Fura 2/AM, 20 μM of indomethacin, 2.5 mM of probenecid
Assay buffer: Hank's balanced salt solution (HBSS) containing 1% (w/v) BSA, 2 μM of indomethacin, 2.5 mM of probenecid and 10 mM of HEPES-NaOH

[2] = biological target: T1, mouse EP1; assay: Binding assay using expression cell of prostanoid receptor subtype (3H-PGE2 competition, membrane fraction); design: expressed in transfected cells; host or cells: CHO cells, membrane fraction; details: competition of 3H-PGE2 (2.5 nM) binding, CHO cell membrane fraction
Method: (i) Binding Assay Using Expression Cell of Prostanoid Receptor Subtype
The preparation of membrane fraction was carried out according to the method of Sugimoto et al. (J. Biol. Chem., 267, 6463-6466 (1992)), using expression CHO cell of prostanoid receptor subtype (mouse EP1, EP2, EP3α or EP4).
The standard assay mixture containing membrane fraction (0.5 mg/ml) and ^3H-PGE2 in a final volume of 200 μl was incubated for 1 hour at room temperature. The reaction was terminated by addition of ice-cold buffer (3 ml). The mixture was rapidly filtered through a glass filter (GF/B). The radioactivity associated with the filter was measured by liquid scintillation counting.
Kd and Bmax values were determined from Scatchard plots (Ann. N.Y. Acad. Sci., 51, 660 (1949)). Non-specific binding was calculated as the binding in the presence of an excess (2.5 μM) of unlabeled PGE2. In the experiment for competition of specific ^3H-PGE2 binding by the compound of the present invention, ^3H-PGE2 (2.5 nM) and the compound of the present invention were added. The following buffer was used in all reaction.
Buffer: potassium phosphate (pH 6.0, 10 mM), EDTA (1 mM), MgCl2 (10 mM) and NaCl (0.1 M).
The dissociation constant Ki (μM) of each compound was calculated by the following equation. Ki=IC50/(1+([C]/Kd))
wherein [C] is concentration of ^3H-PGE2 used in the reaction

[3] = Stability measured on HPLC (Comparison Example 1); format: physicochemical; details: for Stability (in words): comment on Table 4
Method: A Comparison of the Stability of 4-methyl-2-thiazolylsulfonyl chloride with that of the Compound Prepared in Examples 8 and 9
The solution prepared in Reference Example 1 was concentrated under reduced pressure to give 4-methyl-2-thiazolylsulfonyl chloride. The stability of this compound and the compounds prepared in Examples 8 and 9 was measured on HPLC. The conditions of HPLC were as follows.
Column: YMC-Pack ODS-AM-302(4.6 mm*150 mm)
Eluting solvent: MeCN/3 mM tetra-n-butylammonium phosphate=40/60

[4] = system: EP1 receptor; assay: Inhibition of sulprostone-induced increase of intravesical pressure of bladder in rats; format: in vivo, rat; details: female Wistar rats, 1 mg/kg intraduodenal, 40 minutes after administration
Source text: (iii) Experiment to Assess the Inhibition of Sulprostone-Induced Increase of Intravesical Pressure of Bladder in Rats.
Female rats (Wistar) were anesthetized by urethane and their both ureters were ligated and cut off at the kidney side. The urinary bladder was incised its top and catheter was inserted. The other end of catheter was connected to the pressure transducer and the infusion pump. Repeated micturition reflex, which was induced by the continuous infusion of citrate buffer (pH 3.5) into the bladder, was recorded. The increase of micturition pressure was elicited by the subcutaneous injection of diclofenac (5 mg/kg) and sulprostone (300 μg/kg). Since such an increasing effect was not observed by the treatment of EP3 agonist, it was considered that this increase was caused by the activation of EP1 receptor. The inhibitory effects of the compound of the present invention on this increase of intravesical pressure were measured for 60 minutes after the intraduodenal administration (2 ml/kg).

Structure (SMILES)	IC50 [1] [nM]	Ki [2] [nM]	other results
CC(C)CN(c1cc(Cl)ccc1OCc1ccc(C(=O)O)cc1)S(=O)(=O)c1ccco1 [Example 18 (125), reference compound]	1340	1.3	
Cc1csc(S(=O)(=O)n2cc[n+](C)c2)n1 [Example 9, 1-(4-methylthiazol-2-ylsulfonyl)-3-methylimidazol-1-onium hydrogen chloride salt]			Residual Rate (%) ([3]; 40 °C, 24 hour): 99.6%; Stability (in words) [3]: stable even at high temperature
Cc1csc(S(=O)(=O)N(CC(C)C)c2ccc(C(F)(F)F)cc2OCc2ccc(/C=C/C(=O)O)cc2)n1 [Example 2 (41), 4-[2-[N-isobutyl-N-(4-methyl-2-thiazolylsulfonyl)amino]-5-trifluoromethylphenoxymethyl]cinnamic acid]	25	1.5	
Cc1csc(S(=O)(=O)On2nnc3ccccc32)n1 [Example 8, 1-(4-methylthiazol-2-ylsulfonyloxy)-1,2,3-benzotriazole]			Residual Rate (%) ([3]; 40 °C, 24 hour): 99.8%; Stability (in words) [3]: stable even at high temperature
Cc1csc(S(=O)(=O)Cl)n1 [4-methyl-2-thiazolylsulfonyl chloride, 4-methyl-2-thiazolylsulfonylchloride]			Residual Rate (%) ([3]; 1 °C, 24 hour): 102.0%; Residual Rate (%) ([3]; 1 °C, 48 hour): 96.3%; Residual Rate (%) ([3]; 1 °C, 72 hour): 98.6%; Residual Rate (%) ([3]; 20 °C, 24 hour): 71.4%; Residual Rate (%) ([3]; 20 °C, 48 hour): 20.6%; Residual Rate (%) ([3]; 20 °C, 66 hour): 2.0%; Residual Rate (%) ([3]; 40 °C, 16 hour): 60.9%; Residual Rate (%) ([3]; 40 °C, 24 hour): 7.6%; Stability (in words) [3]: stable at low temperature, but when subjected to room temperature or higher, it is hard to assure the stability
Cc1ccc(S(=O)(=O)N(CC(C)C)c2cc(C)c(C)cc2OCc2ccc(C(=O)O)cc2C)o1 [Example 2, 3-methyl-4-[2-[N-isobutyl-N-(5-methyl-2-furylsulfonyl)amino]-4,5-dimethylphenoxymethyl]benzoic acid]	7.8	4.2	Inhibition (%) (40 minutes later) [4]: 68 ± 1%
Cc1ccc(S(=O)(=O)N(CC(C)C)c2cc(C)c(C)cc2OCc2ccc(C(=O)O)cc2)o1 [Example 2 (6), 4-[2-[N-isobutyl-N-(5-methyl-2-furylsulfonyl)amino]-4,5-dimethylphenoxymethyl]benzoic acid]	7.2	0.32	
Cc1cc(OCc2ccc(/C=C/C(=O)O)cc2C)c(N(CC(C)C)S(=O)(=O)c2cccnc2)cc1C [Example 2 (94), 3-methyl-4-[2-[N-isobutyl-N-(3-pyridylsulfonyl)amino]-4,5-dimethylphenoxymethyl]cinnamic acid]	9.2	3.9	
Cc1ccc(OCc2ccc(C(=O)O)cc2)c(N(CC(C)C)S(=O)(=O)c2ccco2)c1 [Example 18 (113), reference compound]	470	5.5	
Cc1csc(S(=O)(=O)N(c2cc(C)c(Cl)cc2OCc2ccc(-c3nnn[nH]3)cc2C)C(C)C)n1 [Example 3 (11), N-[4-chloro-5-methyl-2-[2-methyl-4-(5-tetrazolyl)phenylmethyloxy]phenyl]-N-isopropyl-(4-methyl-2-thiazolyl)sulfonylamide]	4.9	2.3	
Cc1ccc(S(=O)(=O)N(CC(C)C)c2cc3c(cc2OCc2ccc(C(=O)O)cc2C)CCC3)o1 [Example 2 (33), 3-methyl-4-[6-[N-isobutyl-N-(5-methyl-2-furylsulfonyl)amino]indan-5-yloxymethyl]benzoic acid]	4.1	6.6	Inhibition (%) (40 minutes later) [4]: 79 ± 11%
Cc1ccc(N(CC(C)C)S(=O)(=O)c2ccco2)c(OCc2ccc(C(=O)O)cc2)c1 [Example 18 (93), reference compound]	200	0.8	
Cc1csc(S(=O)(=O)N(c2cc(C)c(C)cc2OCc2ccc(-c3noc(=O)[nH]3)cc2)C(C)C)n1 [Example 4 (14), N-[4,5-dimethyl-2-[4-(5-oxo-1,2,4-oxadiazol-3-yl)phenylmethyloxy]phenyl]-N-isopropyl-(4-methyl-2-thiazolyl)sulfonylamide]	7.1	0.8	
Cc1ccc(S(=O)(=O)N(CC(C)C)c2cc3c(cc2OCc2ccc(/C=C/C(=O)O)cc2)CCC3)o1 [Example 2 (32), 4-[6-[N-isobutyl-N-(5-methyl-2-furylsulfonyl)amino]indan-5-yloxymethyl]cinnamic acid]	21	7.9	
CC(C)CN(c1ccc(Cl)cc1OCc1ccc(C(=O)O)cc1)S(=O)(=O)c1ccco1 [Example 18 (121), reference compound]	260	1	
Cc1cc(OCc2ccc(-c3nnn[nH]3)cc2Cl)c(N(C(C)C)S(=O)(=O)c2cccnc2)cc1C [Example 3 (30), N-[4,5-dimethyl-2-[2-chloro-4-(5-tetrazolyl)phenylmethyloxy]phenyl]-N-isopropyl-3-pyridylsulfonylamide]	3.7	0.8	
Cc1cc(OCc2ccc(C(=O)O)cc2C)c(N(CC(C)C)S(=O)(=O)c2ccccn2)cc1C [Example 2 (87), 3-methyl-4-[2-[N-isobutyl-N-(2-pyridylsulfonyl)amino]-4,5-dimethylphenoxymethyl]benzoic acid]	7.3	1.4	

Reference: patent US8088802B2, “N-phenylarylsulfonamide compound, pharmaceutical composition comprising the compound as active ingredient, synthetic intermediate for the compound and process for its preparation” (Ono Pharmaceutical Co., Ltd., priority 2001, dated 2012)
